Data as given in patent US11952328B2, “Selective ship inhibitors for treating disease” (THE RESEARCH FOUNDATION FOR THE STATE UNIVERSITY OF NEW YORK, priority 2018, dated 2024).
Entries after “also recorded” stand apart in the source; their conditions may differ.

Key:
[1] = system: tumor; test: Adoptive transfer of hematolymphoid cells from 3AC treated long-term survivors, survival after tumor challenge; type: in vivo, mice; conditions: cells from tumor challenged, 3AC treated long-term surviving donor vs naive donor; recipients not treated
Text: To test for continued presence of such immunity, hematolymphoid cells were adoptively transferred from either a nave donor or from a tumor challenged, 3AC treated, long-term surviving (primed) donor into nave C57BL/6 hosts.

[2] = system: RMA-Rael cells; test: Acute rejection of RMA-Rael lymphoma, tumor burden by peritoneal lavage; type: in vivo, mice
Description: FIGS. 4A-4D show the effects of SHIP1 inhibition using 3AC in mice. 5×10^5 GFP-expressing RMA-Rael cells were injected into C57BL/6 (FIG. 4A), RAG1−/− (FIG. 4B), or into C57BL/6 hosts (FIG. 4C-4D) with antibody depleted (NK) or intact (Iso) NK cell compartment. Mice were treated with either SHIP inhibitor or vehicle for two days. Tumor burden was determined by flow cytometric analysis of peritoneal cavity contents recovered by peritoneal lavage performed on the third day. Graphs represent pooled data from two independent experiments using at least 4 SHIP inhibitor-treated mice and 4 vehicle-treated mice in each experiment. FIG. 4A (p=0.0433; Mann-Whitney U test). FIG. 4B (p=0.0007; Mann-Whitney U test). FIG. 4C (p=0.0153; Unpaired t test with Welch's correction). FIG. 4D (p=0.9188. Mann-Whitney U test).
To determine if acute SHIP inhibitor treatment promoted in vivo clearance of tumor cells expressing a ligand for such receptors, the ability of SHIP inhibitor treatment to increase host rejection of tumor targets in vivo using the C57BL/6-derived H2b T cell lymphoma, RMA-Rael was analyzed. NK cell mediated rejection of RMA- Rael cells requires perforin expression and is independent of IFNγ production, and thus this assay allows for interrogation of a different NK cell effector function than that analyzed in FIG. 3 (Hayakawa, Y. et al., Cutting edge: tumor rejection mediated by NKG2D receptor-ligand interaction is dependent upon perforin. J Immunol. (2002); 169: 5377-538). Mice were challenged with syngeneic tumor cells followed by treatment with 3AC or vehicle for 2 consecutive days. On the third day peritoneal lavage was performed to evaluate tumor burden. […] To assess whether NK cells contributed to acute tumor rejection the same experiment using NK cell depleted C57BL/6 hosts (DNK) was performed. […] This increase in tumor burden was not seen in vehicle treated mice that were also depleted of NK cells (FIG. 4D).

[3] = system: CT26 colon carcinoma cells; test: Subcutaneous CT26 colon carcinoma model; type: in vivo, BALB/C mice
Description: FIG. 7A and FIG. 7B show CT26 (FIG. 7A) and MC-38 (FIG. 7B) viability following in vitro treatment with 3AC for 24 h at indicated doses. Relative viability is expressed as frequency compared to solvent only treated cells. Kill curve summarizes pooled data from three independent experiments using six replicate wells/concentration with mean±SEM indicated. BALB/C mice were challenged with subcutaneous injection of CT26 colon carcinoma cells in the right flank. Mice were treated with either 2 consecutive days of 3AC or vehicle control each week as in FIG. 4A. Tumor size at […] 28 days (FIG. 7C), and tumor weight on day 28 determined after dissection of tumor (FIG. 7E). […] C57BL/6 mice were challenged with subcutaneous injection of MC-38 colon carcinoma cells in the right flank. Mice were treated with either 2 consecutive days of SHIP inhibitor or vehicle control each week as in FIG. 4A. Tumor size at 14, 21 and 25 days (FIG. 7D), and tumor weight (FIG. 7F) on day 25 were determined after dissection of tumor. […] FIG. 7A (n=18 per group. One-way ANOVA with Dunnett's multiple comparisons. 0 μM vs. 20 μM Adjusted p value=0.0463. All other concentrations of SHIP inhibitor compared with solvent only N.S.). FIG. 7B (n=18 per group. One-way ANOVA with Dunnett's multiple comparisons. All concentrations of SHIP inhibitor compared with solvent only N.S.). FIGS. 7C-7F graphs represent data from one of two independent experiments. FIG. 7C (n=10. Day 14 p<0.0001, Unpaired t test with Welch's correction. Day 21 p<0.0001, two-tailed student's t-test. Day 28 p<0.0001, two-tailed Student's t-test). FIG. 7E (n=10. P<0.0001, two-tailed Student's t-test) FIG. 7D (n=10. Day 14 p=0.0005, two-tailed student's t-test. Day 21 p=0.0009, two-tailed Student's t-test. Day 25 p=0.0009, two-tailed student's t-test). FIG. 7F (n=10. P=0.0067, two-tailed student's t-test).
Colorectal cancer is the second leading cause of cancer mortality in the United States (Siegel, R. L. et al., Colorectal cancer statistics, 2017. CA Cancer J Clin. (2017)). […]

Question: For CC(C)CCC[C@@H](C)[C@H]1CC[C@H]2[C@@H]3CCC4C[C@H](N)CC[C@]4(C)[C@H]3CC[C@]12C (stereo partly drawn) [Compound 3AC, 3-α-aminocholestane], which “survival of recipients of primed hematolymphoid cells” value [1] is on record?
Answer: significantly increased survival

Question: And the tumor rejection ([2]; 3AC-treated hosts with intact NK cell compartment vs 3AC hosts depleted of NK cells)?
Answer: significantly greater tumor rejection

Question: What about the tumor burden ([2]; C57BL/6 hosts depleted of NK cells or not, 3AC vs vehicle) of the same compound?
Answer: profound reduction of tumor burden; also recorded: large reduction in tumor burden

Question: And the lymphoma burden ([2]; C57BL/6 hosts, 5×10^5 RMA-Rael, 2 consecutive days treatment, lavage on third day, vs vehicle)?
Answer: dramatic reduction

Question: What about the tumor weight ([3]; day 28, vs vehicle) of the same compound?
Answer: significant reduction

Question: What about the tumor size ([3]; two consecutive days each week, days 14, 21, 28, vs vehicle) of the same compound?
Answer: significant reduction

Question: What about the “histological analysis (H&E) of tumors” value ([3]; vs vehicle) of the same compound?
Answer: prominent zones of tumor cell death
